Data on two compounds can be found in patent publication US20250064779A1, “COMPOSITIONS AND METHODS FOR THE TREATMENT OF DEPRESSION” (Janssen Pharmaceuticals, Inc., priority 2022, published 2025).

Assay type in all cases: in vivo, human
Data set [1] deals with subjects with TRD. The data set can be described thus: PHQ-9 total score, esketamine long-term study (Example 5). The text has this: This is an open-label, multicenter, long-term study to evaluate the efficacy of intranasal esketamine plus a newly initiated oral antidepressant in subjects with TRD ([…] 3002/NCT02418585).
Each subject participated in up to 4 phases: up to 4-week screening phase (direct-entry subjects only), a 4-week open-label induction (IND) phase (direct-entry subjects and transferred-entry non responder subjects), a 48-week open-label optimization/maintenance (OP/MA) phase (all responder subjects from the open label IND phase of the current study, and transferred-entry responder subjects), and a 4-week follow-up phase. The maximum duration of the subject's participation in […] 3004 study was 60 weeks for direct-entry subjects; 56 weeks for transferred-entry non-responder subjects, and 52 weeks for transferred-entry responder subjects. The sample size of 750 was estimated to have at least 300 subjects received treatment with intranasal esketamine for 6 months and at least 100 subjects for 12 months. In addition, transfer-entry subjects were enrolled from 3005 study to get 100 elderly subjects dosed with esketamine. See, FIG. 30 for the trial design.
The efficacy analyses are based on the full (IND) analysis set and the full (OP/MA) analysis set. […] A total score (0 to 60) is calculated by summing the scores of all 10 items. […]

Data set [2] relates to adjunctive MDD, including treatment-resistant MDD (TRD) and MDD with suicidal ideation (SUI). The data set can be described thus: Biomarker signature (3MM, 2MM, CRP) analysis of MADRS treatment effect across clinical trials (Example 6). As to the method: Samples of venous blood were obtained from patients and healthy control subjects from subject described in Example 5 and from the other clinical trials referenced herein. Serum or plasma was prepared from the samples of venous blood. Measurements of human CRP and IL-6-R were performed in serum using an MSD Sector 6000 with the kits #K151STD and K151ALC (MesoScale Discovery, Rockville, MD). Human TNFα was quantified in serum using a Simoa HD-1 analyzer with kit #143 (Quanterix, Lexington, MA). All measures were performed according to kit manufacturer's recommendations.
As used in the following biomarker assay analysis, treatment (TRT) refers to treatment with intranasal esketamine plus optionally an oral antidepressant and placebo (PBO) refers to treatment with a placebo plus optionally an oral antidepressant.
The following biomarker signatures were employed: • 3MM: Inflammatory biomarker signature with positive status defined by CRP >3 mg/L and (TNFα>4 pg/mL or sIL6R>25 ng/mL). • 2MM: Inflammatory biomarker signature with positive status defined by CRP >3 mg/L and sIL6R>25 ng/mL. • CRP: Inflammatory biomarker signature with positive status defined by CRP >3 mg/L/
The 3MM signature was tested in clinical trials for adjunctive MDD, including treatment-resistant MDD (TRD) and MDD with suicidal ideation (SUI). […] Significant was driven by Esketamine (ESK) TRD trials.

Data set [3] deals with subjects with TRD. The experiment in a line: MADRS, intranasal esketamine plus oral antidepressant, open-label long-term study (Example 5).
The subject of data set [4] is subjects with TRD. The data set can be described thus: SDS remission (functional recovery), esketamine long-term study (Example 5). The conditions noted are these: observed case. An excerpt:
Functional recovery measured by SDS followed with some lag time after mood improvement. […] See, FIG. 32.

Data set [5] is described as follows: Weight change, Example 1. The conditions noted are these: n = 85; for Mean weight, Withdrawal Baseline, mean (SE): after 6 weeks in the double-blind treatment phase. An excerpt: At the lead-in baseline timepoint, the mean weight for subjects in the placebo group was 76.17 kg compared to 78.66 in the aticaprant group. After 6 weeks in the double-blind treatment phase, the mean weight in the placebo group was 75.75 kg compared to 78.57 kg in the aticaprant group. […] This is unexpected because other adjunctive treatments for MDD result in a mean weight increase. See, Thase M, et al. J Clin Psych. 2015: 76(9), 1224-1231; Thase, J Clin Psych. 2015, 76(9):1232-1240; El Khalili, Int J Neuropsychopharmacol. 2010, 13, 917-932; Marcus, J. Clin. Psychopharmacol. […] Nashville, Tenn, ACNP, 2008; Earley, American College of Neuropsychopharmacology, 2007, Annual Meeting Abstracts (Boca Raton, Fla, Dec. 9-13, 2007). Nashville, TN, ACNP, 2007). See, Table 29.

Where [6] appears, read: across the esketamine TRD trials, end of double blind treatment.
The mark [7] stands for this setting: endpoint of OP/MA phase, responders proceeding to OP/MA.

Structures are written as SMILES. Where “and” joins values, the source holds several entries; their conditions need not be identical. Equal entries are not always repeated.

As to `CN[C@]1(c2ccccc2Cl)CCCCC1=O` [esketamine, (S)-2-(2-chlorophenyl)-2-(methylamino)cyclohexanone], the “PHQ-9 total score: mean change (SD) from Baseline (IND) to End Point (IND)” value in data set [1] (induction phase) is reported as −8.9 (6.67). In data set [1] (optimization/maintenance phase), the “PHQ-9 total score: mean change (SD) from Baseline (OP/MA) to End Point (OP/MA)” value is −0.2 (5.65). Also, in data set [2] (TRD2003, Japanese patients), the “treatment effect, change in MADRS, biomarker signature negative patients” value is recorded as 2.83 points. Besides, in data set [2] (TRD2003, Japanese patients, small n), the “treatment effect, change in MADRS, biomarker signature positive patients” value was 11.69 points. For the same compound, the “Signature advantage (difference between subtypes), 3MM” value in data set [2] (across the esketamine TRD trials) stood at 5.8 point. In addition, in data set [2] (setting [6]), the “Treatment effect over placebo in 3MM biomarker signature negative subjects (TE SigNeg)” value is 2 MADRS points and 2.0 MADRS points; the “Treatment effect over placebo in 3MM biomarker signature positive subjects (TE SigPos)” value is 7.8 MADRS points. For the same compound, the “3MM status at baseline as predictor of treatment effect” value in data set [2] (esketamine trials with suicidal ideation (SUI)) was “did not predict treatment effect”. Moreover, in data set [3] (4-week open-label induction phase, intranasal 28/56/84 mg twice weekly), the “MADRS total score: mean change (SD) from Baseline (IND) to End Point (IND)” value is recorded as −16.4 (8.76). Also, in data set [3] (48-week optimization/maintenance phase), the “MADRS total score: mean change (SD) from Baseline (OP/MA) to End Point (OP/MA)” value is recorded as 0.3 (8.12). In data set [3] (End Point, IND phase), the “remission rate (MADRS total score ≤12)” value was determined as 47.2% and the “response rate (≥50% improvement from Baseline (IND) in MADRS total score)” value was 78.4%. In data set [3] (setting [7]), the “remitters (MADRS total score ≤12)” value is given as 58.2% and the “responders (≥50% improvement in MADRS total score)” value came to 76.5%. The “remission rate measured by SDS” value in data set [4] (OP/MA phase week 4) was 25.2%. The “remission rate measured by SDS” value in data set [4] (OP/MA phase week 48) was 51.1%. Further, the “remission rate measured by SDS” value in data set [4] (endpoint of the IND phase) worked out at 21.1%.

In the case of `Cc1cc(C)cc(C2CCCN2Cc2ccc(Oc3ccc(C(N)=O)cc3F)cc2)c1` (stereo not drawn) [aticaprant, 3-fluoro-4-4-2-(3,5-dimethylphenyl)pyrrolidin-1-yl-methylphenoxybenzamide], in data set [5], the “Mean weight, Lead-in Baseline, mean (SE)” value was 78.66 kg; the “Mean weight, Screening, mean (SE)” value was 78.42 (1.65) kg; the “Weight: Absolute Change (Withdrawal − Lead-in)” value was -0.09 kg; the “Mean weight, Withdrawal Baseline, mean (SE)” value is reported as 78.57 kg. Further, the “Weight: Relative % Change” value in data set [5] (Withdrawal vs Lead-in) is listed as −0.11%. For the same compound, in data set [5] (listed as Aticaprant), the “Mean weight, Withdrawal Baseline, mean (SE)” value was 78.57 (1.71) kg and the “Mean weight, Lead-in Baseline, mean (SE)” value is given as 78.66 (1.65) kg.
